The source of these data is US10064837B1, “Abietic acid derivatives as anti-tumor agents” (KING SAUD UNIVERSITY, priority 2018, dated 2018).

One data set relates to 5α-reductase. Nature of the data set: In vivo 5α-reductase inhibitor biological assay. Details: species or system male Sprague-Dawley rats. The settings on record: rats treated subcutaneously from postnatal third day until seven weeks; mean of three separate experiments.
Data set [1] has as its target rat prostate testosterone 5α-reductase. Description: In vitro 5α-reductase inhibitor enzymatic assay (rat ventral prostate homogenate, [3H]testosterone conversion). The format is biochemical. The settings on record: pH 6.5, 37° C., 30 min, mean of three separate experiments. On the procedure:
A homogenate of the ventral prostate gland of male Sprague-Dawley rats was prepared, and testosterone 5α-reductase inhibition was measured using the methods previously reported in Iwai, A., et al., “Spectrophotometric Method for the Assay of Steroid 5α-reductase activity of rat liver and prostate microsomes”, Analytical Sciences 2013, 29: 455-459. Both the type 1 and the type 2 isozymes are present in the ventral prostate of the rat. In the assay, rat prostate extracts were used in a neutral pH buffer, and both isozymes were assayed.
The ventral prostate glands were excised and minced with a pair of scissors. The 20 w/v % homogenates were prepared with a glass-glass homogenizer in medium A (sucrose 0.32 M, dithiothreitol 0.1 mM, and sodium phosphate 20 mM, pH 6.5). The homogenate was filtered with surgical gauze and then centrifuged at 3000×g for 10 min. The pellets were suspended in medium A at a protein concentration of 20 mg/ml by triturating sequentially through an 18-gauge needle, and then a 20-gauge needle.
To 40 μl of the enzyme suspension, 10 μl of test sample in ethanol or ethanol alone and a mixture containing 0.525 ml of reaction solution consisting of dithiothreitol 1 mM, sodium phosphate 40 mM, pH 6.5, NADPH 5×10^−5 M, and [1,2,6,7^−3H]testosterone 2.2×10^−9 M were added. The assay mixture was incubated at 37° C. for 30 min. The reaction was stopped by the addition of 1 ml of ethyl acetate, and 50 μl of the upper phase was separated on a silica gel plate in the developing solvent system of ethyl acetate/cyclohexane, at a ratio of 1:1. The zones corresponding to the testosterone and 5α-dihydrotestosterone were cut into fragments. Each fragment was added to 5 ml of Aquasol-2 and counted with a liquid scintillation counter to determine ^3H radioactivity.
The inhibitory activity of each test sample was calculated as follows: Rate of enzyme reaction (R,%)=D/(T+D)×100 Inhibitory activity (%)=(1−Rsample/Rcontrol)×100 where D and T are the ^3H radioactivity recovered. The results are reported in Table 1, and reflected in FIG. 2.

Data set [2] relates to prostate cancer cell line LNCaP. Description: Anti-prostate cancer screening, anti-androgenic bioassay (AR transactivation, MMTV-luciferase) in LNCaP cells. The format is cell-based, Human. The conditions noted are these: 1 nM DHT, 24 h, mean of three separate experiments. On the procedure: (§1) Human prostate cancer cell lines LNCaP and PC-3 were maintained in RPMI 1640 medium and DMEM medium, respectively. Both media were supplemented with penicillin (25 units/mL), streptomycin (25 μg/mL), and 10% fetal calf serum. For the androgen receptor transactivation assay, an androgen-dependent reporter gene transcription test was employed as the primary screening for potential anti-androgen identification. This assay was first performed in LNCaP cells, which express a clinically relevant mutant AR.
(§2) Cells were plated in 24-well tissue culture dishes for 24 hours (PC-3 cells) or 48 hours (LNCaP cells) prior to transfection. Subsequently, LNCaP cells were transfected with a reporter gene, MMTV-luciferase, which contains MMTV-LTR promoter and androgen receptor binding element, and PRL-SV40, which served as an internal control for transfection efficiency. PC-3 cells were transfected with a wild type AR expression plasmid, pSG5AR, in addition to the aforementioned MMTV-luciferase reporter gene and PRL-SV40 internal control. SuperFect (Qiagen, Chatsworth, Calif.) was employed as the transfection reagent following manufacturer's recommendations.
(§3) At the end of a 5-hour transfection period, the medium was changed to DMEM or RPMI 1640 medium, supplemented with 10% charcoal dextran-stripped (that is, androgen-depleted) serum. After 24 h, the cells were treated with 1 nM of DHT and/or test compounds at the designated concentration for another 24 h. The cells were harvested for luciferase activity assay using the Dual Luciferase Assay System (Promega, Madison, Wis.).
The derived data were expressed as relative luciferase activity normalized to the internal luciferase control. Cells cultured in medium containing DHT (androgen), as a positive control, induced a marked reporter gene expression. […] The results are reported in Table 3, and reflected in FIGS. 4 and 5.

Data set [3] has as its system prostate cancer cell line PC3. Description: Anti-prostate cancer screening, anti-androgenic bioassay (wild type AR transactivation, MMTV-luciferase) in PC-3 cells. The conditions noted are these: PC-3 cells transfected with wild type AR, 1 nM DHT, 24 h, mean of three separate experiments. The format is cell-based, Human. On the procedure:
as §1
Wild type AR transactivation assay was performed in PC-3 host cells, which lack an endogenous, functional AR.
as §2, §3
The derived data were expressed as relative luciferase activity normalized to the internal luciferase control. […] The results are reported in Table 3, and reflected in FIGS. 4 and 5.

By IC50 is commonly meant the concentration that gives 50% inhibition. Higher therefore signals weaker potency. Regarding `CC(C)C1=CC2=CCC3C(C)(C(=O)Oc4ccccc4)CC(O)CC3(C)C2CC1` (centres unmarked) [Compound 4a, Phenyl-2-hydroxy-abieta-7,13-dien-18-oate], the “ED50 of the 5α-reductase inhibitors activities” value with 5α-reductase came to 44 ± 0.65 nM. In addition, the IC50 is 0.22 ± 0.03 nM in data set [1], 3.24 ± 0.04 nM in data set [2] (Homo sapiens) and 18.2 ± 11 nM in data set [3] (Homo sapiens).
On to `CC(C)(C)NC(=O)[C@H]1CC[C@H]2[C@@H]3CC[C@H]4NC(=O)C=C[C@]4(C)[C@H]3CC[C@]12C` [Finasteride, finasteride, reference compound], for which the “ED50 of the 5α-reductase inhibitors activities” value with 5α-reductase turned out to be 170 ± 7.9 nM. Moreover, the results for the half-maximal inhibitory concentration (IC50) in data set [1] and in data set [2] (Homo sapiens) were 60 ± 1.2 nM and more than 100000 nM, respectively.
Turning to `CC(C)C1=CC2=CC(O)C3C(C)(C(=O)Sc4ccccc4)CCCC3(C)C2CC1` (centres unmarked) [Compound 5b, Phenyl-6-hydroxy-abieta-7,13-dien-18-thioate], in the data set with 5α-reductase, the “ED50 of the 5α-reductase inhibitors activities” value worked out at 88 ± 0.89 nM. The IC50 in data set [1] came out at 0.88 ± 0.07 nM; in data set [2] (Homo sapiens), 7.8 ± 0.09 nM; in data set [3] (Homo sapiens) it was 83.5 ± 2.3 nM.
By melting point is commonly meant the temperature of the solid-liquid transition. Take `CC(C)C1=CC2=CCC3C4(C)CC(CC3(C)C2CC1)OC4=O` (centres unmarked) [Compound 2, Abieta-7, 13-dien-18-oic acid (18→2) lactone]: the melting point lay in the range of 227 to 229 °C. Also, the “ED50 of the 5α-reductase inhibitors activities” value in the data set on 5α-reductase amounted to 64 ± 0.76 nM. Moreover, in data set [1], the IC50 was 0.34 ± 0.06 nM. This compound also came in with an IC50 in data set [2] (Homo sapiens) of 4.22 ± 0.03 nM. For the same compound, the half-inhibitory concentration (IC50) in data set [3] (Homo sapiens) is 45.7 ± 1.09 nM.
Turning to `CC(C)C1=CC2=CC[C@@H]3[C@](C)(CCC[C@@]3(C)C(=O)O)[C@H]2CC1` [Abietic acid], the “ED50 of the 5α-reductase inhibitors activities” value in the data set with 5α-reductase came to 8800 ± 87 nM. The IC50 in data set [1] was 56000 ± 22000 nM.
Consider `CC(C)C1=CC2=CCC3C(C)(C(=O)Sc4ccccc4)CC(O)CC3(C)C2CC1` (centres unmarked) [Compound 4b, Phenyl-2-hydroxy-abieta-7,13-dien-18-thioate], for which the “ED50 of the 5α-reductase inhibitors activities” value in the data set on 5α-reductase worked out at 45 ± 0.57 nM. The results for the IC50 in data set [1], in data set [2] and in data set [3] were 0.29 ± 0.01 nM, 3.58 ± 0.02 nM and 26.4 ± 1.8 nM, respectively.
Turning to `CC(C)(C#N)c1cc(Cn2cncn2)cc(C(C)(C)C#N)c1` [Anastrozole, anastrozole, reference compound], the “ED50 of the 5α-reductase inhibitors activities” value in the data set with 5α-reductase is 1090 ± 3.4 nM. In data set [1], this compound registered an IC50 of 11230 ± 23 nM.
As for `CC(C)C1=CC2=CC(O)C3C(C)(C(=O)Oc4ccccc4)CCCC3(C)C2CC1` (centres unmarked) [Compound 5a, Phenyl-6-hydroxy-abieta-7,13-dien-18-oate], the “ED50 of the 5α-reductase inhibitors activities” value in the data set with 5α-reductase was determined as 76 ± 0.89 nM. Further, the values for the IC50 in data set [1], in data set [2] (Homo sapiens) and in data set [3] (Homo sapiens) were 0.74 ± 0.06 nM, 6.21 ± 0.04 nM and 71.2 ± 3.6 nM, respectively.
Turning to `CC(C)C1=CC2=CCC3C(C)(C(=O)Nc4ccccc4)CC(O)CC3(C)C2CC1` (centres unmarked) [Compound 4c, Phenyl-2-hydroxy-abieta-7,13-dien-18-carboxamide], in the data set on 5α-reductase, the “ED50 of the 5α-reductase inhibitors activities” value amounted to 38 ± 0.45 nM. Further, the IC50 in data set [1] came out at 0.19 ± 0.02 nM; in data set [2] (Homo sapiens), 2.33 ± 0.05 nM; in data set [3] (Homo sapiens) it was 11.14 ± 0.09 nM.
The matching figures for `CC(C)C1=CC2=CC(O)C3C(C)(C(=O)Nc4ccccc4)CCCC3(C)C2CC1` (centres unmarked) [Compound 5c, Phenyl-6-hydroxy-abieta-7,13-dien-18-carboxamide]: 71 ± 0.74 nM, 0.68 ± 0.08 nM, 5.78 ± 0.03 nM and 66.2 ± 2.3 nM.
`CC(C)C1=CC2=CC3OC(=O)C4(C)CCCC(C)(C2CC1)C34` (centres unmarked) [Compound 3, Abieta-7,13-dien-18-oic acid (18→6) lactone] displayed a melting point of 301 to 303 °C. Also, in the data set on 5α-reductase, the “ED50 of the 5α-reductase inhibitors activities” value was 90 ± 0.88 nM. This compound came in with an IC50 in data set [1] of 0.91 ± 0.07 nM. The same compound showed a 50% inhibitory concentration (IC50) in data set [2] (Homo sapiens) of 9.08 ± 0.08 nM. In addition, in data set [3] (Homo sapiens), half-maximal inhibition (IC50) required 112 ± 3.7 nM.
